Experimental findings from ChEMBL document CHEMBL1148484, “Design, synthesis, and biological evaluation of doxorubicin-formaldehyde conjugates targeted to breast cancer cells” (J Med Chem, 2004) are described below.

What is called IC50 is the midpoint of a concentration-inhibition curve.

The subject of assay [1] is MCF7. Briefly: cells. The settings on record: Homo sapiens.
Description: Inhibition of estrogen receptor positive MCF-7 breast cancer cell proliferation
Assay [2] deals with NCI/ADR-RES. Briefly: cells. Conditions: Homo sapiens.
Description: Inhibition of MCF-7/Adr breast cancer cell proliferation
The subject of assay [3] is MDA-MB-231. Briefly: cells. The settings on record: Homo sapiens.
Description: Inhibition of estrogen receptor negative MDA-MB-231 breast cancer cell proliferation
Assay [4] has as its system MDA-MB-435. Briefly: cells. Conditions: Homo sapiens.
Description: Inhibition of MDA-MB-435 breast cancer cell proliferation
Assay [5] deals with Estrogen receptor (Homo sapiens, UniProt Q92731+P03372). The settings on record: mcf-7.
Description: Inhibition of [3H]E2 binding to estrogen receptor alpha in MCF-7 cell lysate

As to `CC/C(=C(/c1ccc(O)cc1)c1ccc(OCN(C)C)cc1)c1ccccc1`, the IC50 is 0.3 µM in assay [1]; 40 µM in assay [2]; 30 µM in assay [3]; 20 µM in assay [4]; 0.005 µM in assay [5].

In turn, `CCC(c1ccccc1)C(c1ccc(O)cc1)c1ccc(OCCN(C)CCOCCO/N=C/c2ccc(O)c(C(N)=O)c2)cc1` (centres undefined) displayed an IC50 in assay [5] of 0.15 µM.

For `CCC(c1ccccc1)C(c1ccc(O)cc1)c1ccc(OCCN(C)CCO/N=C/c2ccc(O)c(C(N)=O)c2)cc1` (centres undefined), in assay [5], the half-inhibitory concentration (IC50) was determined as 0.3 µM.

`CC/C(=C(/c1ccc(O)cc1)c1ccc(OCN(C)C)cc1)c1ccccc1.COc1cccc2c1C(=O)c1c(O)c3c(c(O)c1C2=O)C[C@@](O)(C(=O)CO)C[C@@H]3O[C@H]1C[C@H](N)[C@H](O)[C@H](C)O1`: the IC50 in assay [1] was found to be 0.07 µM; in assay [2], 2 µM; in assay [3] it was 0.1 µM; in assay [4], 0.1 µM.

On to `CC/C(=C(/c1ccc(O)cc1)c1ccc(OCCN(C)CCO/N=C/c2ccc(O)c(C(=O)NCNC3CC(O[C@H]4C[C@](O)(C(=O)CO)Cc5c(O)c6c(c(O)c54)C(=O)c4c(OC)cccc4C6=O)OC(C)C3O)c2)cc1)c1ccccc1` (some centres undefined), for which the IC50 worked out at 0.08 µM in assay [1]; 0.25 µM in assay [2]; 0.04 µM in assay [3]; 0.06 µM in assay [4]; 0.3 µM in assay [5].

For the compound `CC/C(=C(/c1ccc(O)cc1)c1ccc(OCCN(C)CCOCCO/N=C/c2ccc(O)c(C(=O)NCNC3CC(O[C@H]4C[C@](O)(C(=O)CO)Cc5c(O)c6c(c(O)c54)C(=O)c4c(OC)cccc4C6=O)OC(C)C3O)c2)cc1)c1ccccc1` (some centres undefined), the IC50 was 0.02 µM in assay [1]; 0.07 µM in assay [2]; 0.03 µM in assay [3]; 0.04 µM in assay [4]; 0.3 µM in assay [5].

Turning to `CCC(c1ccccc1)C(c1ccc(O)cc1)c1ccc(OCCN(C)CCOCCOCCO/N=C/c2ccc(O)c(C(N)=O)c2)cc1` (centres undefined), the IC50 in assay [5] was 0.15 µM.

Turning to `CC/C(=C(/c1ccc(O)cc1)c1ccc(OCCN(C)CCOCCOCCO/N=C/c2ccc(O)c(C(=O)NCNC3CC(O[C@H]4C[C@](O)(C(=O)CO)Cc5c(O)c6c(c(O)c54)C(=O)c4c(OC)cccc4C6=O)OC(C)C3O)c2)cc1)c1ccccc1` (some centres undefined), the half-inhibitory concentration (IC50) was found to be 0.03 µM in assay [1]; 0.06 µM in assay [2]; 0.03 µM in assay [3]; 0.04 µM in assay [4]; 0.2 µM in assay [5].

As for `COc1cccc2c1C(=O)c1c(O)c3c(c(O)c1C2=O)C[C@@](O)(C(=O)CO)C[C@@H]3O[C@H]1C[C@H](N)[C@H](O)[C@H](C)O1` [DOXORUBICIN], the values for the IC50 in assay [2], in assay [3] and in assay [4] were 10 µM, 0.3 µM and 0.15 µM, respectively.

`CC/C(=C(\c1ccccc1)c1ccc(OCCN(C)C)cc1)c1ccccc1` [TAMOXIFEN]: the IC50 in assay [1] worked out at 0.07 µM; in assay [2], 2 µM; in assay [3], 0.08 µM; in assay [4], 0.05 µM.
